# Measured values reported in patent US20250127743A1, “USE OF BRANCHED CHAIN FATTY ACIDS (BCFAS) FOR THE TREATMENT OF INTESTINAL INFLAMMATION” (priority 2021, published 2025).
# Read-outs that look alike come from different tables or passages of the source.
# Columns and labels:
# [1] = tested on: proteins conjugated to SUMO2/3 in CACO2 cells; assay: Immunoblot quantification of SUMO2/3-conjugated proteins (above 50 kDa) in CACO2 cells; type: cell-based; conditions: for effect of ROS scavenger preincubation on BCFAs-induced hyperSUMOylation: 30 min pre-incubation with 5 mM NAC or 10 μM DPI, then 1h 5 mM isobutyric or isovaleric acid
# Description: (§1) CACO2 and HeLa cells were cultivated in Minimum Essential Medium (MEM) (Eurobio) supplemented with 2 mM L-Glutamine (Invitrogen), 10% Fetal Bovine Serum (FBS, Eurobio), non-essential aminoacids (Sigma), 1 mM sodium pyruvate (Gibco) and a mixture of penicillin (10000 U/mL) and streptomycin (10 mg/mL). […] CACO2 and T84 cells were seeded in wells at a density of 1.1×10^5 cells/cm^2 and 1.7×10^5 cells/cm^2, respectively, the day before incubation with BCFAs or SCFAs.
# (§2) Before treatments, cell culture medium was replaced by HBSS (Hanks' Balanced Salt Solution; Sigma). Cells were then treated as indicated in the text and directly lysed with Laemmli buffer. For BCFAs and SCFAs treatments, 100 mM stock solutions in water were first prepared from the corresponding acidic form (e.g. isobutyric acid) or from the sodium salt of the corresponding basic form (e.g. sodium isobutyrate) and then further diluted in cell culture media (HBSS). When needed, the pH of cell culture medium was set using either 0.1 M NaOH or 0.1 M HCl solution. […] For TNFα treatments, CACO2 cells were first incubated with BCFAs or SCFAs for 1 hour and then incubated with 100 ng/mL recombinant human TNFα (PeproTech). For immunoblotting and qRT-PCR analyses, cells were lysed after 30 min or 1h of incubation with TNFα, respectively. For Transepithelial electrical resistance (TEER) measurements, cells were incubated for 24 h with TNFα. Viability of cells incubated with HBSS at various pH or with BCFAs was assessed using the CellTiter-Glo® luminescent cell viability assay (Promega), according to the manufacturer's protocol.
# (§3) Cell lysates and protein extracts from intestinal tissues in Laemmli buffer were boiled for 5 min, sonicated and protein content was resolved using SDS-polyacrylamide gel electrophoresis. Proteins were then transferred on PVDF membranes (GE Healthcare) and detected after incubation with specific antibodies using ECL Clarity Western blotting Substrate (BioRad). […] Quantifications of proteins were performed on a ChemiDoc Imaging System (Bio-rad). SUMO2/3-conjugated proteins levels (above 50 kDa), SUMO1-conjugated protein levels (above 50 kDa), and other specific protein levels were normalized either by the level of total proteins above 50 kDa (determined using the TGX-stain free imaging technology; Bio-rad) or by the level of actin in each lysate.
# [2] = tested on: IκBα; assay: Immunoblot of IκBα levels in TNFα-stimulated CACO2 cells; type: cell-based; conditions: 1 hour pre-incubation with 5 mM, then 30 min 100 ng/mL TNFα
# Description: as §2, §3
# [3] = tested on: cullin-1 neddylation in HeLa cells; conditions: HeLa cells (Kumar et al., 2007; Kumar et al., 2009); cited from earlier work
# [4] = tested on: CACO2 cells; assay: Luminol-based ROS detection assay in CACO2 cells; type: cell-based; conditions: for ROS production: 1h of incubation; for level of ROS: 5h of incubation, compared with 1h
# Description: Luminol was dissolved in NaOH 0.1 M to obtain a 50 mM stock solution. A stock solution of 1000 U/mL HRP (HorseRadish Peroxidase) was prepared in parallel in PBS (Phosphate-Buffered Saline). After treatment with BCFAs or SCFAs or incubation in HBSS at pH 5.2, CACO2 and HeLa culture media were collected and centrifugated for 5 min at 13,000×g at room temperature. The pH of these culture media was then buffered to 7.5 to avoid pH-dependent interferences with luminol activity. Luminol (1 mM final concentration) and HRP (4 U/mL) were finally added to each culture media and luminescence was quantified immediately on a luminometer (Tecan).
# [5] = tested on: HeLa cells; conditions: HeLa cells (Kumar et al., 2009); cited from earlier work
# [6] = tested on: IEC-6 intestinal epithelial cells; conditions: IEC-6 intestinal epithelial cells (Kumar et al., 2009); cited from earlier work
# [7] = tested on: SAE1/SAE2 or UBC9; assay: Immunoblot of E1 and E2 SUMO enzyme levels in CACO2 cells; type: cell-based
# Description: as §3
# [8] = tested on: cullin-1 neddylation in HeLa cells; assay: Cullin-1 neddylation in HeLa cells; type: cell-based; conditions: 5h of incubation
# Description: as §1, §3
# [9] = tested on: CCL20; assay: qRT-PCR of CCL20 mRNA in TNFα-stimulated CACO2 cells; type: cell-based; conditions: 1 hour pre-treatment, then 1 hour 100 ng/mL TNFα
# Description: as §2, with “For Transepithelial electrical resistance (TEER) measurements, cells were incubated for 24 h with TNFα.” left out
# (§4) Total RNAs were extracted from CACO2 cells using the RNeasy Plus Mini kit (Qiagen) following manufacturer's instructions. […] Specific cDNAs were then quantified by qPCR using Itaq Universal SYBR Green Supermix (BioRad) on a Mastercycler ep Realplex system (Eppendorf, Hamburg, Germany). […]
# [10] = tested on: CACO2 cells; assay: Intracellular pH (BCECF-AM) in CACO2 cells; type: cell-based; conditions: 5 mM
# [11] = tested on: IL8; assay: qRT-PCR of IL8 mRNA in TNFα-stimulated CACO2 cells; type: cell-based; conditions: 1 hour pre-treatment, then 1 hour 100 ng/mL TNFα
# Description: as §2, with “For Transepithelial electrical resistance (TEER) measurements, cells were incubated for 24 h with TNFα.” left out
# as §4
# [12] = pH and acid/base forms of BCFA in HBSS medium; type: physicochemical; conditions: 5 mM added to HBSS medium
# Description: as §2
# BCFAs are weak organic acids, which exist in solution either as acidic (R—COOH) or basic (R—COO^−) forms.
# [13] = tested on: deSUMOylases; assay: DeSUMOylase activity assay (SUMO-AMC cleavage) in lysates of treated CACO2 and T84 cells; type: cell-based; conditions: 5 mM for 5 h, cell lysates
# Description: For in vitro cell lines, CACO2 and T84 cells grown in 12-well plates were scraped in 100 μL lysis buffer (Tris HCl pH 8.0 50 mM, EDTA 5 mM, NaCl 200 mM, Glycerol 10%, NP40 0.5%). For in vivo tissues, caecal segments were resuspended in lysis buffer (800 μL for 100 mg of tissues), mechanically lysed using bead beating and further diluted 25 times in lysis buffer. Negative controls were prepared by adding 10 mM N-ethymaleimide (NEM; Sigma-Aldrich) to cell lysates. Recombinant human SUMO1-AMC and SUMO2-AMC proteins (R&D Systems) were diluted in parallel to 500 nM in Assay buffer (Tris HCl pH 8.0 50 mM, Bovine Serum Albumin (BSA) 100 μg/mL, Dithiothreitol (DTT) 10 mM). For each measurement, 10 μL of cell or tissue lysates were mixed with 40 μL of SUMO-AMC containing Assay buffer and fluorescence (λEx=380 nm; λEm=460 nm) was recorded for 30 min at 37° C. on a Flexstation 3 microplate reader (Molecular Devices). DeSUMOylase activities were determined by calculating the initial rate of fluorescence emission in each lysate and by normalizing by the quantity of proteins in the corresponding sample, determined in parallel using BCA assays (Pierce™ BCA Protein Assay Kit).
# [14] = tested on: CACO2 cells; assay: Transepithelial electrical resistance (TEER) of differentiated CACO2 monolayers with TNFα; type: cell-based; conditions: differentiated CACO2 in Transwell, 1 hour pre-treatment, then 24 hours 100 ng/mL TNFα
# Description: CACO2 cells were seeded in Transwell inserts and cultivated for 21 days. Monolayer formation and differentiation was monitored by daily evaluation of transepithelial electrical resistance (TEER) measurement, performed with an EVOM epithelial voltohm meter equipped with “chopstick” electrodes. After three weeks, cell culture media were replaced by HBSS. Cells were then preincubated or not with isobutyric or isovaleric acids for 1 hour. 100 ng/mL TNFα was then added to both apical and basolateral compartments. TEER was evaluated after 24h of incubation.
# [15] = tested on: T84 cells; assay: Intracellular pH (BCECF-AM) in T84 cells; conditions: 5 mM
# Description: CACO2 and T84 cells, grown in 96-well plates were loaded with 2 μM BCECF-AM (2′,7′-Bis-(2-Carboxyethyl)-5-(and-6)-Carboxyfluorescein, Acetoxymethyl Ester; Invitrogen) for 30 min in HBSS at 37° C. […] Cells were then washed twice and incubated in HBSS with or without BCFAs or with HBSS at definite pH. Cell fluorescence (λEmission535 nm) was recorded at two different excitation wavelengths: 440 nm and 490 nm. Comparison of the ratios of fluorescence intensities (490/440 nm) was performed to detect changes in intracellular pH. Calibration solutions (with pH ranging from 4.5 to 7.5) were used as controls (Intracellular pH Calibration Buffer Kit; Molecular Probes).
# [16] = tested on: proteins conjugated to SUMO2/3 in T84 cells; assay: Immunoblot of SUMO2/3-conjugated proteins in T84 cells; type: cell-based; conditions: 5 mM, 1h of incubation
# Description: as §1
# Before treatments, cell culture medium was replaced by HBSS (Hanks' Balanced Salt Solution; Sigma). Cells were then treated as indicated in the text and directly lysed with Laemmli buffer. […] Viability of cells incubated with HBSS at various pH or with BCFAs was assessed using the CellTiter-Glo® luminescent cell viability assay (Promega), according to the manufacturer's protocol.
# Cell lysates and protein extracts from intestinal tissues in Laemmli buffer were boiled for 5 min, sonicated and protein content was resolved using SDS-polyacrylamide gel electrophoresis. Proteins were then transferred on PVDF membranes (GE Healthcare) and detected after incubation with specific antibodies using ECL Clarity Western blotting Substrate (BioRad). […] Quantifications of proteins were performed on a ChemiDoc Imaging System (Bio-rad). […]
structure (smiles),measurement,setting,value
"c1ccc2c(c1)[I+]c1ccccc1-2 [DPI, Diphenyleneiodonium]",effect of ROS scavenger preincubation on BCFAs-induced hyperSUMOylation,[1]; CACO2 cells,significantly block
"CC(=O)N[C@@H](CS)C(=O)O [NAC, N-acetyl cysteine]",effect of ROS scavenger preincubation on BCFAs-induced hyperSUMOylation,[1]; CACO2 cells,significantly block
CC(=O)O [acetic acid],level of SUMO2/3-conjugated proteins,[1],significant increase
CCCC(=O)O [butyric acid],TNFα-triggered degradation of IκBα,[2],block
same,cullin-1 neddylation,[3],trigger the loss of cullin-1 neddylation
same,ROS production,[4],induce ROS production
same,level of ROS,[4],less important
same,ROS production,[5],induce ROS
same,ROS production,[6],induce ROS
same,level of SUMO2/3-conjugated proteins,"[1]; CACO2 cells, 5h, pH~5.2, 5 mM final concentration",significant increase
CC(C)C(=O)O [isobutyric acid],level of SAE1/SAE2 or UBC9,[7],do not alter
same,cullin-1 neddylation,[8],triggers cullin-1 deneddylation
same,TNFα-triggered degradation of IκBα,[2],block
same,CCL20 mRNA expression in response to TNFα,[9],downregulate
same,ROS production,[4],induce ROS production
same,level of ROS,[4],less important
same,intracellular pH (pHi),[10],significant decrease
same,IL8 mRNA expression in response to TNFα,[11],downregulate
same,concentration present as isobutyrate,[12],~3500 µM
same,concentration present as isobutyric acid,[12],~1500 µM
same,pH of HBSS medium after addition,[12],~5.2
same,proportion present as isobutyrate,[12],~72%
same,proportion present as isobutyric acid,[12],~28%
same,"initial rate of SUMO deconjugation, SUMO1-AMC substrate",[13],significantly decrease
same,"initial rate of SUMO deconjugation, SUMO2-AMC substrate",[13],significantly decrease
same,TNFα-induced increase in epithelial permeability (TEER),[14],block
same,intracellular pH (pHi),[15],significant decrease
same,hyperSUMOylation (SUMO2/3-conjugated proteins),[16],hyperSUMOylation is similarly observed
same,level of proteins conjugated to SUMO2/3,"[1]; CACO2 cells, 5 mM, 1h or 5h of incubation",significant increase
